Data: patent publication US20130131161A1, “METHODS AND COMPOSITIONS FOR CARDIOVASCULAR DISEASES AND CONDITIONS” (priority 2009, published 2013)
Values joined by “and” are separate entries in the source; they are usually repeats but may differ in a detail not shown here. Equal values may be shown once.

System: Human umbilical vein endothelial cells (HUVECs)
Assay: eNOS activity analysis: NO, ONOO− and NO/ONOO− release from HUVECs of 50 genotyped donors in response to LA-419 (Example 2)
Format: cell-based
Conditions: LA-419 1 μM
Experimental: Concurrent measurements of NO and ONOO^− were carried out with tandem electrochemical nanosensors combined into one working unit with a total diameter of 200-500 nm (FIG. 1). Their design was based on previously developed and well-characterized chemically modified carbon-fiber technology (Malinski and Taha, 1992; Lvovich and Scheeline, 1997). Each of the nanosensors was made by depositing a sensing material on the tip of a carbon fiber (length 4-5 μm, diameter 0.2-0.5 μm). The fibers were sealed with nonconductive epoxy and electrically connected to copper wires with conductive silver epoxy. A conductive film of polymeric nickel (II) tetrakis(3-methoxy-4-hydroxyphenyl)porphyrin for the NO-sensor and polymeric film of Mn (III) [2.2]paracyclophanylporphyrin was used for the ONOO^−-sensor.
A module of NO/ONOO^− nanosensors (diameter 1-2 μm) with a platinum wire (0.1 mm) counter electrode and saturated calomel reference electrode (SCE) were applied. Differential pulse voltammetry (DPV) and amperometry were performed with a computer-based Gamry VFP600 multichannel potentiostat. DPV was used to measure the basal NO and ONOO^− concentrations, and amperometry was used to measure changes in NO and ONOO^− concentrations from its basal level with time. The DPV current at the peak potential characteristic for NO oxidation (0.65 V) and ONOO^− reduction (−0.45 V) was directly proportional to the local concentrations of these compounds in the immediate vicinity of the sensor. Linear calibration curves (current vs. concentration) were constructed for each sensor from 10 nM to 3 μM before and after measurements with aliquots of NO and ONOO^− standard solutions, respectively. The detection limit of the sensors was 1.0 nM.
The quantification of each analyte (concentration in nM) was performed using a maximum current from amperograms and standard calibration curves. A reproducibility of measurements with nanosensors is relatively high (between 5-12%). […] The sensors were slowly raised 5±2 μm from the surface of a single endothelial cell. The eNOS agonist, calcium ionophore A23187 (CaI) as well as the different drugs were then added to the surrounding media at the cell surface with a nanoinjector that was also positioned by a computer controlled-micromanipulator.
This example describes the genotype-specific response of the three major eNOS variants to 1 μM and 5 μM concentrations of LA-419. The three major genetic polymorphisms studied were the Glu298Asp variant (E298D or 894G→T) in exon 7 of […], the −786T→C variant in the promoter region, and the intron 4 polymorphism (VNTR). All of these variants have possible effects on the cardiovascular system and endothelial dysfunction. For this study, human umbilical vein endothelial cells (HUVECs) from 50 donors between 18 and 32 years of age were used.
For the analysis several analysis techniques were employed. First, the effect of genotype on NO and ONOO^− release was explored within the different concentrations of LA-419 (control, 1 μM, 5 μM), calculated as the average peak release (nmols/L) of NO, ONOO^−, and NO/ONOO^−. The effect of genotype on the net increase in NO, ONOO^−, and NO/ONOO^− for LA-419 (1 μM and 5 μM) as compared to control was also measured. In addition, an analysis was done on the effect of genotype on the % change in NO, ONOO^−, and NO/ONOO^− production for LA-419 (1 μM and 5 μM), calculated as:
% Change=[(avg. LA-419−avg. control)/(avg. control)]*100
Finally, an evaluation was undertaken concerning the effect of genotype on the production of NO, ONOO^−, and NO/ONOO^− as the fold difference of control for LA-419 (1 μM and 5 μM), calculated as:
Fold Difference=(avg. LA-419)/(avg. control)
Within each calculation technique the results were compared for statistical significance using a non-parametric ANOVA Kruskal-Wallace test or a non-parametric Mann-Whitney U test. Statistical significance was set at a p-value <0.05 in a two-tailed distribution. […]

[1] = HUVECs G894T + T-786C Combination of all genotypes other than G/G + T/T
[2] = HUVECs G894T + T-786C variant G/G + T/C
[3] = HUVECs G894T + T-786C variant G/G + T/T (Reference)
[4] = HUVECs G894T + T-786C variant G/T + C/C
[5] = HUVECs G894T + T-786C variant G/T + T/C
[6] = HUVECs G894T + T-786C variant G/T + T/T
[7] = HUVECs G894T + T-786C variant T/T + C/C
[8] = HUVECs G894T + T-786C variant T/T + T/C

SMILES: CC(=O)SC1COC2C(O[N+](=O)[O-])COC12 (stereo not drawn) [LA-419, S-(6-Nitro-oxi-hexahydro-furo[3,2-b]furan-3-1-il)thioacetate]
- Net increase over control NO/ONOO− (mean ± sd) [1]: −0.92 (0.90)
- Net increase over control ONOO− (mean ± sd) [1]: −42.43 (111.75) nmols/L
- Peak release NO (mean ± sd) [1]: 390.03 (73.13) nmols/L
- Peak release NO/ONOO− (mean ± sd) [1]: 1.29 (0.46)
- Peak release ONOO− (mean ± sd) [1]: 331.26 (91.43) nmols/L
- Net increase over control NO (mean ± sd) [2]: 5.33 (68.90) nmols/L
- Net increase over control NO/ONOO− (mean ± sd) [2]: −0.88 (0.63)
- Net increase over control ONOO− (mean ± sd) [2]: 13.13 (106.46) nmols/L
- Peak release NO (mean ± sd) [2]: 351.00 (88.83) nmols/L
- Peak release NO/ONOO− (mean ± sd) [2]: 1.09 (0.51)
- Peak release ONOO− (mean ± sd) [2]: 357.00 (94.18) nmols/L
- Net increase over control NO (mean ± sd) [3]: 31.22 (71.86) nmols/L
- Net increase over control NO/ONOO− (mean ± sd) [3]: 1.16 (9.12)
- Net increase over control ONOO− (mean ± sd) [3]: −32.54 (86.18) nmols/L
- Peak release NO (mean ± sd) [3]: 374.30 (78.06) nmols/L
- Peak release NO/ONOO− (mean ± sd) [3]: 1.19 (0.43)
- Peak release ONOO− (mean ± sd) [3]: 338.98 (81.16) nmols/L
- Net increase over control NO (mean ± sd) [4]: −53.67 (0) nmols/L
- Net increase over control NO/ONOO− (mean ± sd) [4]: −0.24 (0)
- Net increase over control ONOO− (mean ± sd) [4]: 228.33 (0) nmols/L
- Peak release NO (mean ± sd) [4]: 334.67 (0) nmols/L
- Peak release NO/ONOO− (mean ± sd) [4]: 0.64 (0)
- Peak release ONOO− (mean ± sd) [4]: 526.67 (0) nmols/L
- Net increase over control NO (mean ± sd) [5]: 76.26 (75.55) nmols/L
- Net increase over control NO/ONOO− (mean ± sd) [5]: −1.21 (1.06)
- Net increase over control ONOO− (mean ± sd) [5]: −81.10 (79.76) nmols/L
- Peak release NO (mean ± sd) [5]: 420.44 (56.87) nmols/L
- Peak release NO/ONOO− (mean ± sd) [5]: 1.44 (0.32)
- Peak release ONOO− (mean ± sd) [5]: 302.82 (59.66) nmols/L
- Net increase over control NO (mean ± sd) [6]: 28.92 (13.00) nmols/L
- Net increase over control NO/ONOO− (mean ± sd) [6]: −0.99 (1.06)
- Net increase over control ONOO− (mean ± sd) [6]: −2.83 (64.48) nmols/L
- Peak release NO (mean ± sd) [6]: 409.67 (64.25) nmols/L
- Peak release NO/ONOO− (mean ± sd) [6]: 1.37 (0.44)
- Peak release ONOO− (mean ± sd) [6]: 321.58 (90.82) nmols/L
- Net increase over control NO (mean ± sd) [7]: 20.67 (16.77) nmols/L
- Net increase over control NO/ONOO− (mean ± sd) [7]: −0.56 (0.56)
- Net increase over control ONOO− (mean ± sd) [7]: −42.44 (9.91) nmols/L
- Peak release NO (mean ± sd) [7]: 334.11 (83.36) nmols/L
- Peak release NO/ONOO− (mean ± sd) [7]: 0.96 (0.58)
- Peak release ONOO− (mean ± sd) [7]: 398.00 (131.00) nmols/L
- Net increase over control NO (mean ± sd) [8]: 20.83 (131.76) nmols/L
- Net increase over control NO/ONOO− (mean ± sd) [8]: 0.07 (0.61)
- Net increase over control ONOO− (mean ± sd) [8]: −227.83 (117.62) nmols/L
- Peak release NO (mean ± sd) [8]: 420.83 (4.48) nmols/L
- Peak release NO/ONOO− (mean ± sd) [8]: 1.80 (0.16)
- Peak release ONOO− (mean ± sd) [8]: 234.67 (23.10) nmols/L
- % Change Ratio, % Change NO/% Change ONOO− (mean ± sd) (HUVECs G894T variant G/G): 0.76 (8.64)
- Net increase over control NO (mean ± sd) (HUVECs G894T variant G/G): 23.26 (70.68) nmols/L and 23.26 (70.64) nmols/L
- Net increase over control NO/ONOO− (mean ± sd) (HUVECs G894T variant G/G): 0.53 (7.59)
- Net increase over control ONOO− (mean ± sd) (HUVECs G894T variant G/G): −18.49 (93.20) nmols/L
- Peak release NO (mean ± sd) (HUVECs G894T variant G/G): 367.13 (80.46) nmols/L
- Peak release NO/ONOO− (mean ± sd) (HUVECs G894T variant G/G): 1.16 (0.45)
- Peak release ONOO− (mean ± sd) (HUVECs G894T variant G/G): 344.53 (83.88) nmols/L
- % Change Ratio, % Change NO/% Change ONOO− (mean ± sd) (HUVECs G894T variant G/T): −1.15 (0.91)
- Net increase over control NO (mean ± sd) (HUVECs G894T variant G/T): 58.52 (72.43) nmols/L
- Net increase over control NO/ONOO− (mean ± sd) (HUVECs G894T variant G/T): −1.12 (1.02)
- Net increase over control ONOO− (mean ± sd) (HUVECs G894T variant G/T): −46.52 (105.03) nmols/L
- Peak release NO (mean ± sd) (HUVECs G894T variant G/T): 413.28 (58.46) nmols/L
- Peak release NO/ONOO− (mean ± sd) (HUVECs G894T variant G/T): 1.38 (0.38)
- Peak release ONOO− (mean ± sd) (HUVECs G894T variant G/T): 319.43 (81.89) nmols/L
- Net increase over control NO (mean ± sd) (HUVECs G894T variant G/T & T/T): 50.30 (71.57) nmols/L
- Net increase over control NO/ONOO− (mean ± sd) (HUVECs G894T variant G/T & T/T): −0.93 (0.99)
- Net increase over control ONOO− (mean ± sd) (HUVECs G894T variant G/T & T/T): −61.75 (109.14) nmols/L
- Peak release NO (mean ± sd) (HUVECs G894T variant G/T & T/T): 403.61 (63.52) nmols/L
- Peak release NO/ONOO− (mean ± sd) (HUVECs G894T variant G/T & T/T): 1.36 (0.43)
- Peak release ONOO− (mean ± sd) (HUVECs G894T variant G/T & T/T): 322.30 (90.85) nmols/L
- % Change Ratio, % Change NO/% Change ONOO− (mean ± sd) (HUVECs G894T variant T/T): −0.66 (1.02)
- Net increase over control NO (mean ± sd) (HUVECs G894T variant T/T): 20.73 (66.94) nmols/L
- Net increase over control NO/ONOO− (mean ± sd) (HUVECs G894T variant T/T): −0.31 (0.61)
- Net increase over control ONOO− (mean ± sd) (HUVECs G894T variant T/T): −116.60 (117.55) nmols/L
- Peak release NO (mean ± sd) (HUVECs G894T variant T/T): 368.80 (75.73) nmols/L
- Peak release NO/ONOO− (mean ± sd) (HUVECs G894T variant T/T): 1.29 (0.63)
- Peak release ONOO− (mean ± sd) (HUVECs G894T variant T/T): 332.67 (129.30) nmols/L
- Net increase over control NO (mean ± sd) (HUVECs Intron 4 variant a/a): −25.78 (104.49) nmols/L
- Net increase over control NO/ONOO− (mean ± sd) (HUVECs Intron 4 variant a/a): −0.11 (0.56)
- Net increase over control ONOO− (mean ± sd) (HUVECs Intron 4 variant a/a): 26.11 (116.99) nmols/L
- Peak release NO (mean ± sd) (HUVECs Intron 4 variant a/a): 360.56 (80.60) nmols/L
- Peak release NO/ONOO− (mean ± sd) (HUVECs Intron 4 variant a/a): 0.97 (0.57)
- Peak release ONOO− (mean ± sd) (HUVECs Intron 4 variant a/a): 421.11 (124.25) nmols/L
- Net increase over control NO (mean ± sd) (HUVECs Intron 4 variant b/a): 56.57 (67.97) nmols/L
- Net increase over control NO/ONOO− (mean ± sd) (HUVECs Intron 4 variant b/a): 0.28 (0.43)
